Assay results taken from patent US10525044B2, “Treatment for chemotherapy-induced peripheral neuropathy” (priority 2013, dated 2020).

Test system: intramitochondrial ROS in neurons
Assay: ROS examination with DHR 123 in neurons
Assay type: cell-based, Sprague-Dawley rats
Details: 10 μM PAN-811; 100 μM MTX and 25 μM 5-FU; 1 day
Source text: Neuronal Cell Culture. […] Since AOs, including vitamin E, vitamin E acetate, superoxide dismutase (SOD), catalase (CAT), and GSH, are additives to culture medium, reduction of AO concentration in culture medium provides an approach to determine the level of OS involvement in a neurotoxic process. In our study, the culture medium was replaced at a 50% ratio with NB plus B27 minus AOs twice at days 7 and 9 to set AO concentrations as 50% and 25%, respectively. […] Cell Insults and Treatments. Determination of concentration for each anticancer drug in our experiments was based on its reported concentration in human cerebral spinal fluid (CSF) in chemotherapy, literature report of its neurotoxicity in culture, and our preliminary in vitro experimental data. […] For ROS examination, the neurons were insulted with both 100 μM of MTX and 25 μM of 5-FU by 15 d.i.v. […] ROS Examination. […] Fluorescence was photographed by using a fluorescentmicroscope and quantified by excitation at 485 nm and emission at 520 nm using a 96-well plate reader (Model 550, Bio-Rad). […] Data were generated from 4-6 replicate wells, expressed as mean±standard deviation (SD), and statistically evaluated at a significance level of 1% with one factor ANOVA or Student's t-test by using software […] […]

## NC(=S)N/N=C/c1ncccc1N [PAN-811, 3-aminopyridine-2-carboxaldehyde thiosemicarbazone]
  suppression rate of increased ROS (DHR123): 62.3%
